We go through nine compounds from patent US8877778B2, “Benzofurane compounds” (Hoffmann-La Roche Inc., priority 2010, dated 2014).

For orientation: pKi means −log10 of the Ki, conventionally taken in molar units. Broadly, the melting point is the temperature of the solid-liquid transition.

Data set [1] deals with human D2 receptor (Homo sapiens (Human), UniProt P14416). The data set can be described thus: Radioligand binding ([3H]-spiperone) to cloned receptors expressed in HEK-293 EBNA cells. The conditions noted are these: HEK293 EBNA cell membranes expressing human D2. The procedure:
(§1) HEK293 EBNA cells were transiently transfected with expression plasmids encoding for the human D2 or D3 or for the human 5-HT2A receptor, respectively. The cells were harvested 48 h post-transfection, washed three times with cold PBS and stored at −80° C. prior to use. The pellet was suspended in cold 50 mM Tris-HCl buffer comprising 10 mM EDTA (pH 7.4) and was homogenized with a Polytron (Kinematica AG, Basel, Switzerland) for 20-30 sec at 12.000 rpm. After centrifugation at 48.000×g for 30 min at 4° C., the pellet was resuspended in cold 10 mM Tris-HCl buffer comprising 0.1 mM EDTA (pH 7.4), homogenized, and centrifuged as above. This pellet was further resuspended in a smaller volume of ice cold 10 mM Tris-HCl buffer comprising 0.1 mM EDTA (pH 7.4) and homogenized with a Polytron for 20-30 sec at 12.000 rpm. The protein content of this homogenate was determined with the Bio-Rad (Bradford) Protein Assay (Biorad Laboratories GmbH, München, Germany) according to the instructions of the manufacturer using gamma globulin as the standard. This homogenate was stored at −80° C. in aliquots and thawed immediately prior to use.
(§2) Aliquots of membrane preparations were thawed at RT, resupended in assay buffer (D2, D3: 50 mM Tris-HCl, 120 mM NaCl, 5 mM MgCl2, 1 mM EDTA, 5 mM KCl, 1.5 mM CaCl2, pH=7.4; 5-HT2A: 50 mM Tris-HCl, 10 mM MgCl2, 1 mM EGTA, pH=7.4), homogenized with a Polytron for 20-30 sec at 12.000 rpm and adjusted to a final concentration of approximately 7.5 μg protein/well (D2, D3) and 15 μg protein/well (5-HT2A), respectively.
(§3) The binding affinity (Ki) of the compounds was determined using radioligand binding. Membranes were incubated in a total volume of 200 μl with a fixed concentration of radioligand (final concentration approximately 0.7 nM [^3H]-spiperone for D2, 0.5 nM [^3H]-spiperone for D3, and 1.1 nM [^3H]-ketanserin for 5-HT2A) and ten concentrations of test compound in ranging between 10 μM-0.1 nM for 1 h at RT. At the end of the incubation, the reaction mixtures were filtered on to unifilter 96-well white microplates with bonded GF/C filters (Packard BioScience, Zürich, Switzerland; preincubated for 1 h in 0.1% polyethylenimine (PEI) in assay buffer) with a Filtermate 196 harvester (Packard BioScience) and washed 3 times with cold assay buffer. The nonspecific binding was determined with equally composed reaction mixtures in the presence of 10 μM unlabelled spiperone. Per well 45 μl of Microscint 40 (Perkin Elmer, Schwerzenbach, Switzerland) was added, plates for sealed, shaken for 20 min and counted for 3 min on a Topcount Microplate Scintillation Counter (Can berra Packard SA, Zürich, Switzerland) with quenching correction.
(§4) The CPM value for each duplicate of a concentration of competing compound was averaged (y1), then the % specific binding was calculated according to the equation (((y1−non-specific)/(total binding−non-specific))×100). Graphs were plotted with the % specific binding using XLfit, a curve fitting program that iteratively plots the data using Levenberg-Marquardt algorithm. The single site competition analysis equation used was y=A+((B−A)/(1+((x/C)D))), where y is the % specific binding, A is the minimum y, B is the maximum y, C is the IC50, x is the log 10 of the concentration of the competing compound and D is the slope of the curve (the Hill Coefficient). […] The affinity constant (Ki) was calculated using the Cheng-Prusoff equation Ki=(IC50/1+([L]/Kd), where [L] is the concentration of radioligand and Kd is the dissociation constant of the radioligand at the receptor as determined by the saturation isotherm.

Data set [2] deals with human D3 receptor (Homo sapiens (Human), UniProt P35462). Described as above. Conditions: HEK293 EBNA cell membranes expressing human D3. The method, then:
as §1, §2, §3, §4

Data set [3] has as its target human 5-HT2A receptor (Homo sapiens (Human), UniProt P28223). The data set can be described thus: Radioligand binding ([3H]-ketanserin) to cloned receptors expressed in HEK-293 EBNA cells. Conditions: HEK293 EBNA cell membranes expressing human 5-HT2A. The method, then: as §1, §2, §3, §4

pKi: −log10 of the molar value.

Sequence of human 5-HT2A receptor (P28223 whole entry): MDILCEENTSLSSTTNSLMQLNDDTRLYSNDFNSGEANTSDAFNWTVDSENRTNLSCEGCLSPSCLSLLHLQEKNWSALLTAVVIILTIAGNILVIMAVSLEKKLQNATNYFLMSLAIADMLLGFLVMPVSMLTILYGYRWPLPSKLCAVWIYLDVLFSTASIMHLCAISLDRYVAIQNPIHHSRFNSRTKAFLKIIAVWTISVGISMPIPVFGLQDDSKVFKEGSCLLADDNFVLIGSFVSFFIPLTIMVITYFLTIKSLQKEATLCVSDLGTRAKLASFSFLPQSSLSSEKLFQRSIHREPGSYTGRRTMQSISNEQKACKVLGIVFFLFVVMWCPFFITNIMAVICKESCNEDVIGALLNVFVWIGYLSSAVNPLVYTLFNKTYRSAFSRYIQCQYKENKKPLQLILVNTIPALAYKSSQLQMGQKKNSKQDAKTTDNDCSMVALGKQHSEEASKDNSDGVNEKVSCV
Sequence of human D2 receptor (P14416 whole entry): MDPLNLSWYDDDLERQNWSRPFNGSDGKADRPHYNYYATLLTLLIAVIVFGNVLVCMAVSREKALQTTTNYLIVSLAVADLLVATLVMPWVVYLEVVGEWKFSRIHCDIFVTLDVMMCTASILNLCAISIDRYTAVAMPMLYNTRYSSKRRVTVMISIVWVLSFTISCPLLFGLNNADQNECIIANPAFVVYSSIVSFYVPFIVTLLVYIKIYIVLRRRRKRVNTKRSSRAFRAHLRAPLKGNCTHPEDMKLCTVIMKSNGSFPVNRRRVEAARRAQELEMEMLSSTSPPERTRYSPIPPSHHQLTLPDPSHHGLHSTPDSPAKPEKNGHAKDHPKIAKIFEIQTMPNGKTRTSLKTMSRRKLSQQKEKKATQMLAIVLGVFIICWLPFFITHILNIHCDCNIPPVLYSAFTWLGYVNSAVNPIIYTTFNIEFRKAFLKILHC
Sequence of human D3 receptor (P35462 whole entry): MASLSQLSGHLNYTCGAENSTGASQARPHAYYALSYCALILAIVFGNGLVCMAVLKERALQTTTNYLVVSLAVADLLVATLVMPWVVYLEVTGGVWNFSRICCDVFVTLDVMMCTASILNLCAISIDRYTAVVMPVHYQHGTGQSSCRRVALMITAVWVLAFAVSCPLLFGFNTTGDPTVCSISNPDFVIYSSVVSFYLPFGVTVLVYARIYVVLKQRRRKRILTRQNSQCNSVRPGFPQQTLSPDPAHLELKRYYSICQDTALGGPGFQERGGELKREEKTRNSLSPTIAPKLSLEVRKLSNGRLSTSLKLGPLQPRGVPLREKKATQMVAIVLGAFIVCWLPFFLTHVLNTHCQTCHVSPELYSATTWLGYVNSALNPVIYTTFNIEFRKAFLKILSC

As to `O=C(N[C@H]1CC[C@H](CCN2CCC(c3cccc4c3CCO4)CC2)CC1)C1CCOCC1` [Example 7, Tetrahydro-pyran-4-carboxylic acid trans-(4-{2-[4-(2,3-dihydro-benzofuran-4-yl)-piperidin-1-yl]-ethyl}-cyclohexyl)-amide], the melting point amounted to 227 °C. Also, the pKi in data set [1] is 6.14. In data set [2], the pKi is 7.64. In data set [3], the negative-log Ki (pKi) was 7.89.
The like results for `O=C(CC1CCOCC1)N[C@H]1CC[C@H](CCN2CCC(c3cccc4c3CCO4)CC2)CC1` [Example 8, trans-N-(4-{2-[4-(2,3-Dihydro-benzofuran-4-yl)-piperidin-1-yl]-ethyl}-cyclohexyl)-2-(tetrahydro-pyran-4-yl)-acetamide] were, in that order, 191 °C, 6.19, 7.98 and 7.41.
The matching figures for `CCC(=O)N[C@H]1CC[C@H](CCN2CCC(c3cccc4occc34)CC2)CC1` [Example 9, trans-N-{4-[2-(4-Benzofuran-4-yl-piperidin-1-yl)-ethyl]-cyclohexyl}-propionamide]: 170 °C, 7.04, 8.66 and 8.25.
The matching figures for `COCC(=O)N[C@H]1CC[C@H](CCN2CCC(c3cccc4occc34)CC2)CC1` [Example 10, trans-N-{4-[2-(4-Benzofuran-4-yl-piperidin-1-yl)-ethyl]-cyclohexyl}-2-methoxy-acetamide]: 124 °C, 6.59, 7.98 and 8.38.
In turn, `CS(=O)(=O)CC(=O)N[C@H]1CC[C@H](CCN2CCC(c3cccc4occc34)CC2)CC1` [Example 11, trans-N-{4-[2-(4-Benzofuran-4-yl-piperidin-1-yl)-ethyl]-cyclohexyl}-2-methanesulfonyl-acetamide] gave a melting point of 201 °C. The negative logarithm of the Ki (pKi) in data set [1] is 6.81. Besides, in data set [2], the negative logarithm of the Ki (pKi) was 8.64. Besides, the pKi in data set [3] was 8.28.
`CCC(=O)N[C@H]1CC[C@H](CCN2CCC(c3cccc4c3CCO4)CC2)CC1` [Example 13, trans-N-(4-{2-[4-(2,3-Dihydro-benzofuran-4-yl)-piperidin-1-yl]-ethyl}-cyclohexyl)-propionamide] had a melting point of 192 °C. Also, the pKi in data set [1] was 6.46. For the same compound, in data set [2], the pKi is 8.34. Also, the negative logarithm of the Ki (pKi) in data set [3] was 7.46.
The like results for `COCC(=O)N[C@H]1CC[C@H](CCN2CCC(c3cccc4c3CCO4)CC2)CC1` [Example 14, trans-N-(4-{2-[4-(2,3-Dihydro-benzofuran-4-yl)-piperidin-1-yl]-ethyl}-cyclohexyl)-2-methoxy-acetamide] were, in that order, 156 °C, 6.17, 7.64 and 7.56.
The matching figures for `CS(=O)(=O)CC(=O)N[C@H]1CC[C@H](CCN2CCC(c3cccc4c3CCO4)CC2)CC1` [Example 15, trans-N-(4-{2-[4-(2,3-Dihydro-benzofuran-4-yl)-piperidin-1-yl]-ethyl}-cyclohexyl)-2-methanesulfonyl-acetamide]: 211 °C, 6.38, 8.31 and 7.44.
The like results for `O=C(N[C@H]1CC[C@H](CCN2CCC(c3cccc4c3CCO4)CC2)CC1)c1ccccc1` [Example 17, trans-N-(4-{2-[4-(2,3-Dihydro-benzofuran-4-yl)-piperidin-1-yl]-ethyl}-cyclohexyl)-benzamide] were, in that order, 220 °C, 6.50, 8.38 and 7.94.
